{
  "source": "paper PMC9696974",
  "about": "(Pharmaceutics, 2022)",
  "key": {"[1]": {"test": "Solubility in water", "assay_type": "physicochemical"}, "[2]": {"biological_target": "BSA (Bos taurus, UniProt P02769)", "sequence (P02769 25-607)": "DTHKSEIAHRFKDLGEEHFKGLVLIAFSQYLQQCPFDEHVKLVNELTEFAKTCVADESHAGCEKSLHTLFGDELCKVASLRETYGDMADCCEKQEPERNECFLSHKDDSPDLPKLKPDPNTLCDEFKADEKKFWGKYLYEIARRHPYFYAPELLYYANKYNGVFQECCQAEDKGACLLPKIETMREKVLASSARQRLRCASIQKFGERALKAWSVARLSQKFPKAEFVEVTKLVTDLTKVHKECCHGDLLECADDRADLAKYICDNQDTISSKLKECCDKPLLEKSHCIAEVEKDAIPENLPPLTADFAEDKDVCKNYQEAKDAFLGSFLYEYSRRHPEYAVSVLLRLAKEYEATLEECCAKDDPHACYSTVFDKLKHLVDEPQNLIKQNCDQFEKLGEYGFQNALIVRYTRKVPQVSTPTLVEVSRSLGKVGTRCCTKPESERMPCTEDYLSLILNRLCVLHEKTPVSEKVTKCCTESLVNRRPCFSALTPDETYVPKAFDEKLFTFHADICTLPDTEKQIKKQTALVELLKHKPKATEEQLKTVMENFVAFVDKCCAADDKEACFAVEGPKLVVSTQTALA", "test": "Fluorimetric titration with BSA, Scatchard equation", "assay_type": "binding, bovine", "conditions": "pH 7, sodium cacodylate buffer, I = 0.05 M; read-out: Binding constant logKs BSA (converted)", "procedure": "(§1) Experiments were conducted in an aqueous buffer solution (pH = 7.0 or pH= 5.0, I = 0.05 M, sodium cacodylate buffer). For the UV-Vis spectra were used Varian Cary 100 Bio spectrometer, for fluorescence spectra we used the Varian Cary Eclipse fluorimeter and for CD spectra we used the JASCO J815 spectropolarimeter, all conducted at 25.0 °C using appropriate quartz cuvettes (path length: 1 cm).\nAs the pharmacokinetic properties of small molecules often depend on a binding affinity toward transport proteins (such as serum albumin), we performed fluorimetric titrations with BSA. The emission of both 1M and 2M (Supplementary Information, Figures S15 and S16), was strongly quenched, with compound 2M showing a lower affinity in comparison to ds-DNA/RNA, while the affinity of 1M was similar to that towards ds-DNA/RNA (Table 2).\n(§2) Processing of fluorimetric titrations by means of the Scatchard equation [56, 57] yielded binding constants (Table 2). […] Affinities of 1 and 2 toward BSA were the same at both pH values, supporting the conclusion that neutral forms of 1 and 2 were bound."}, "[3]": {"system": "A549 cells", "test": "MTT cell viability assay, A549, with or without UV light", "assay_type": "cell-based, human", "conditions": "A549", "procedure": "Cells. Commercially available from American Type Culture Collection (ATCC), human epithelial lung adenocarcinoma A549 (ATCC® CCL-185™) and human normal lung fibroblast WI-38 (ATCC® CCL-75™) were grown according to supplier’s conditions, namely in Dulbecco Modified Eagle’s Medium (DMEM, Sigma Aldrich, St. Louis, MO, USA) supplemented with 10% of fetal bovine serum (FBS, Sigma Aldrich, USA). Cells were incubated in the cell incubator (Thermo Fischer Scientific, Waltham, MA, USA) at 37 °C and 5% CO2 in a humidified atmosphere.\nCell viability assay. In order to obtain a 10 mM stock solution chemical compounds (2M, 1, and 1M) were sterilely diluted in an appropriate volume of dimethyl sulfoxide solution (DMSO, Gram-Mol, Zagreb, Croatia). Solutions were kept in the dark and stored at 4 °C. The cytotoxic effects of each compound were assayed on A549 and WI-38 cells. […] Briefly, cells were seeded in 96-well tissue culture plates and 24 h later treated with 2M, 1, or 1M in the concentration range of 10–0.1 μM. Cells treated with the same dilutions of DMSO represented the control, while cells treated only with DMEM (10% FBS) represented the negative control. After 72 h, the media was removed, MTT solution was added into each well, and the plate was incubated (37 °C, 5% CO2) for 3 h. The resulting MTT-formazan products were dissolved using DMSO, and their absorbance at 600 nm was measured using a microplate reader.\nFor determining the effect of UV exposure, cells were seeded on two plates and treated with working solutions of the respective compounds as previously described. Plates were incubated (37 °C, 5% CO2) for 90 min, allowing the compounds to enter the cells. Then, one plate was exposed to UV light (Luzchem reactor, 350 nm, 8 lamps, in total 8 W, dose 50.6 mWm^−2; ~18 cm lamp to cell-plate) for 5 min, 3 days in a row at the same time each day, while the other plate was left in the cell incubator in the dark and served as a control."}, "[4]": {"test": "pKa from pH dependence of UV/vis spectrum", "assay_type": "physicochemical", "conditions": "water (0.001 M HCl in miliQ water, titrated with NaOH), UV/vis spectra vs pH in water, c = 2.0 × 10^−5 M"}, "[5]": {"system": "ct-DNA", "test": "Fluorimetric titration with ct-DNA, Scatchard equation", "assay_type": "binding, calf", "design": "key: The changes were too small to allow an accurate calculation of the binding constant", "conditions": "I = 0.05 M", "procedure": "as §1\n(§3) Polynucleotides were purchased as noted: poly dAdT-poly dAdT, poly dGdC-poly dGdC, poly A-poly U (ds-RNA), (Sigma-Aldrich, Schnelldorf, Germany), calf thymus (ct)-DNA (Sigma-Aldrich, Schnelldorf, Germany) and dissolved in sodium cacodylate buffer, I = 0.05 M, pH = 7.0. The ct-DNA was sonicated and filtered through a 0.45 µm filter to obtain mostly short (ca. 100 base pairs) rod-like B-helical DNA fragments. The concentration of DNA or RNA was determined spectroscopically as the c(nucleobase) using producer-provided molar extinction coefficients.\nFortunately, strong emission from the compounds studied allowed fluorimetric titrations to be performed at much lower concentrations of the dyes (c = 5 × 10^−8 M), thus preventing precipitation of non-methylated 1 or 2, and allowing for the collection of numerous data points at excess of DNA/RNA binding sites over c(dye). […] Intriguingly, mixed sequence ct-DNA caused emission quenching of 1M at an excess of dye over ct-DNA (r > 0.1), and such quenching could be attributed to aggregation of 1M along DNA, while at an excess of ct-DNA over dye (r << 0.1), emission increased. The emission of 2M was indiscriminately quenched by all ds-DNA/RNA (Figure 2d).\nas §2"}, "[6]": {"system": "ct-DNA", "test": "Thermal denaturation of ct-DNA (∆Tm)", "assay_type": "binding, calf", "conditions": "r = 0.1, pH 5.0, sodium cacodylate buffer, I = 50 mM", "procedure": "as §1, §3\nThermal denaturation of ds-DNA, ds-RNA and their complexes with studied compounds was performed by monitoring the absorption change at 260 nm as a function of temperature. Tm values are the midpoints of the transition curves determined from the maximum of the first derivative and checked graphically by the tangent method. The ∆Tm values were calculated by subtracting the Tm of the free nucleic acid from the Tm of the complex. Every ∆Tm value here reported was the average of at least two measurements. The error in ∆Tm is ± 0.5 °C."}},
  "data": [
    {"smiles": "c1cc(-c2cc3ccc4cc(-c5ccncc5)cc5ccc(c2)c3c45)ccn1", "note": "[compound 2]", "values": [
      {"measurement": "Solubility in water", "setting": "[1]", "result": "poorly soluble in water"},
      {"measurement": "Kd", "setting": "[2]", "result": 5.01, "unit": "µM"},
      {"measurement": "Cytotoxic effect (cell survival, Figure S25)", "setting": "[3]", "result": "no cytotoxic effect"},
      {"measurement": "pKa", "setting": "[4]", "result": "< 4"},
      {"measurement": "Binding constant logKs ct-DNA", "setting": "[5]; pH 5, sodium cacodylate buffer", "result": 5.7},
      {"measurement": "Binding constant logKs ct-DNA", "setting": "[5]; pH 7, sodium cacodylate buffer", "result": "b"},
      {"measurement": "∆Tm ct-DNA", "setting": "[6]", "result": 1.5, "unit": "°C"}
    ]}
  ]
}
